Data published in ChEMBL document CHEMBL2010754, “Unusual isomeric corniculatolides from mangrove, Aegiceras corniculatum” (J Nat Prod, 2012).
Active and inactive are the calls of the source.

Legend:
Assay type in all cases: functional, organism-based
Aspergillus flavus = experiment: Antifungal activity against Aspergillus flavus by agar diffusion method
Klebsiella pneumoniae = experiment: Antibacterial activity against Klebsiella pneumoniae by agar diffusion method
Escherichia coli = experiment: Antibacterial activity against Escherichia coli by agar diffusion method
Aspergillus terreus = experiment: Antifungal activity against Aspergillus terreus by agar diffusion method
Aspergillus niger = experiment: Antifungal activity against Aspergillus niger by agar diffusion method
Bacillus subtilis = experiment: Antibacterial activity against Bacillus subtilis by agar diffusion method
Staphylococcus aureus = experiment: Antibacterial activity against Staphylococcus aureus by agar diffusion method
Micrococcus luteus = experiment: Antibacterial activity against Micrococcus luteus by agar diffusion method

Measured: Activity

COc1ccc2cc1Oc1ccc(cc1)CCC(=O)OCCC2
inactive: Aspergillus flavus | Klebsiella pneumoniae | Escherichia coli | Aspergillus terreus | Aspergillus niger | Bacillus subtilis | Staphylococcus aureus | Micrococcus luteus

COc1ccc2cc1Oc1ccc(cc1)CCCOC(=O)CC2
inactive: Aspergillus flavus | Klebsiella pneumoniae | Escherichia coli | Aspergillus terreus | Aspergillus niger | Bacillus subtilis | Staphylococcus aureus | Micrococcus luteus

COc1c(O)cc2cc1Oc1ccc(cc1)CCCOC(=O)CC2
inactive: Aspergillus flavus | Klebsiella pneumoniae | Escherichia coli | Aspergillus terreus | Aspergillus niger | Bacillus subtilis | Staphylococcus aureus | Micrococcus luteus

O=C1CCc2ccc(cc2)Oc2cc(ccc2O)CCCO1
inactive: Aspergillus flavus | Klebsiella pneumoniae | Escherichia coli | Aspergillus terreus | Aspergillus niger | Bacillus subtilis | Staphylococcus aureus | Micrococcus luteus

O=C1CCc2ccc(O)c(c2)Oc2ccc(cc2)CCCO1
inactive: Aspergillus flavus | Klebsiella pneumoniae | Escherichia coli | Aspergillus terreus | Aspergillus niger | Bacillus subtilis | Staphylococcus aureus | Micrococcus luteus
